What is called IC50 is the concentration needed to halve the response being measured. The low end stands for higher potency, the high end for lower potency.

Drawing on BindingDB's records for doi:10.1021/jm950372w (Rotta Research Laboratorium, 1996), this text covers IC50 for 20 molecules.

Assay [1] concerns the target Gastrin/cholecystokinin type B receptor (Oryctolagus cuniculus). As to the kind of experiment: In vitro inhibition of gastrin-induced [Ca2+] cytosolic elevation in isolated rabbit parietal cells.
Assay [2] has as its target Gastrin/cholecystokinin type B receptor (Cavia porcellus). As to the kind of experiment: Inhibition of binding of [3H]N-Me-N-Leu-CCK-8 to cholecystokinin type B receptor in guinea pig brain cortex.

Each structure is given as a SMILES string. Where a name gives a salt, the structure may show the parent alone.

As for `O=C(O)CC[C@@H](NC(=O)CCC(NC(=O)c1cc(Cl)cc(Cl)c1)C(=O)N1CCC2(CCCC2)CC1)C(=O)N1CCC2(CCCC2)CC1` (stereo partly drawn) [(R)-5-(8-Aza-spiro[4.5]dec-8-yl)-4-[5-(8-aza-spiro[4.5]dec-8-yl)-4-(3,5-dichloro-benzoylamino)-5-oxo-pentanoylamino]-5-oxo-pentanoic acid], the IC50 in assay [1] was found to be 206 nM; in assay [2], 1690 nM.

On to `O=C(CCC(NC(=O)c1cc(Cl)cc(Cl)c1)C(=O)N1CCC2(CCCC2)CC1)N[C@@H](Cc1c[nH]c2ccccc12)C(=O)O` (stereo partly drawn) [(S)-2-[5-(8-Aza-spiro[4.5]dec-8-yl)-4-(3,5-dichloro-benzoylamino)-5-oxo-pentanoylamino]-3-(1H-indol-3-yl)-propionic acid], for which the IC50 came out at 35 nM in assay [1] and 216 nM in assay [2].

With `CN(Cc1ccccc1)C(=O)CC[C@H](NC(=O)CCC(NC(=O)c1cc(Cl)cc(Cl)c1)C(=O)N1CCC2(CCCC2)CC1)C(=O)O` (stereo partly drawn) [(S)-2-[5-(8-Aza-spiro[4.5]dec-8-yl)-4-(3,5-dichloro-benzoylamino)-5-oxo-pentanoylamino]-4-(benzyl-methyl-carbamoyl)-butyric acid], the results for the IC50 in assay [1] and in assay [2] were 55 nM and 78 nM, respectively.

`O=C(CC[C@H](NC(=O)CCC(NC(=O)c1cc(Cl)cc(Cl)c1)C(=O)N1CCC2(CCCC2)CC1)C(=O)O)Nc1cccc2ccccc12` (stereo partly drawn) [(S)-2-[5-(8-Aza-spiro[4.5]dec-8-yl)-4-(3,5-dichloro-benzoylamino)-5-oxo-pentanoylamino]-4-(naphthalen-1-ylcarbamoyl)-butyric acid]: the IC50 in assay [1] came to 12 nM; in assay [2] it was 44 nM.

For the molecule `CN(Cc1ccccc1)C(=O)C[C@H](NC(=O)CCC(NC(=O)c1cc(Cl)cc(Cl)c1)C(=O)N1CCC2(CCCC2)CC1)C(=O)O` (stereo partly drawn) [(S)-2-[5-(8-Aza-spiro[4.5]dec-8-yl)-4-(3,5-dichloro-benzoylamino)-5-oxo-pentanoylamino]-N-benzyl-N-methyl-succinamic acid], the IC50 amounted to 44 nM in assay [1] and 158 nM in assay [2].

Regarding `O=C(O)C[C@H](NC(=O)CCC(NC(=O)c1cc(Cl)cc(Cl)c1)C(=O)N1CCC2(CCCC2)CC1)C(=O)Nc1cccc2ccccc12` (stereo partly drawn) [(S)-3-[5-(8-Aza-spiro[4.5]dec-8-yl)-4-(3,5-dichloro-benzoylamino)-5-oxo-pentanoylamino]-N-naphthalen-1-yl-succinamic acid], the IC50 worked out at 19 nM in assay [1] and 215 nM in assay [2].

On to `O=C(O)CC[C@H](NC(=O)CCC(NC(=O)c1cc(Cl)cc(Cl)c1)C(=O)N1CCC2(CCCC2)CC1)C(=O)NC1CCCc2ccccc21` (stereo partly drawn) [(S)-4-[5-(8-Aza-spiro[4.5]dec-8-yl)-4-(3,5-dichloro-benzoylamino)-5-oxo-pentanoylamino]-4-(1,2,3,4-tetrahydro-naphthalen-1-ylcarbamoyl)-butyric acid], for which the IC50 in assay [1] was found to be 9 nM; in assay [2] it was 46 nM.

Consider `O=C(O)CC[C@H](NC(=O)CCC(NC(=O)c1cc(Cl)cc(Cl)c1)C(=O)N1CCC2(CCCC2)CC1)C(=O)Nc1cccc2c1CCCC2` (stereo partly drawn) [(S)-4-[5-(8-Aza-spiro[4.5]dec-8-yl)-4-(3,5-dichloro-benzoylamino)-5-oxo-pentanoylamino]-4-(5,6,7,8-tetrahydro-naphthalen-1-ylcarbamoyl)-butyric acid], for which the IC50 in assay [1] was 16 nM; in assay [2], 57 nM.

As for `O=C(O)CC[C@H](NC(=O)CCC(NC(=O)c1cc(Cl)cc(Cl)c1)C(=O)N1CCC2(CCCC2)CC1)C(=O)Nc1ccc2c(c1)CCC2` (stereo partly drawn) [(S)-4-[5-(8-Aza-spiro[4.5]dec-8-yl)-4-(3,5-dichloro-benzoylamino)-5-oxo-pentanoylamino]-4-(indan-5-ylcarbamoyl)-butyric acid], the IC50 in assay [1] stood at 118 nM; in assay [2], 727 nM.

For the molecule `O=C(O)CC[C@H](NC(=O)CCC(NC(=O)c1cc(Cl)cc(Cl)c1)C(=O)N1CCC2(CCCC2)CC1)C(=O)Nc1cccc2ccccc12` (stereo partly drawn) [(S)-4-[5-(8-Aza-spiro[4.5]dec-8-yl)-4-(3,5-dichloro-benzoylamino)-5-oxo-pentanoylamino]-4-(naphthalen-1-ylcarbamoyl)-butyric acid], the IC50 in assay [1] stood at 7 nM; in assay [2] it was 20 nM.

Consider `O=C(O)CC[C@H](NC(=O)CCC(NC(=O)c1cc(Cl)cc(Cl)c1)C(=O)N1CCC2(CCCC2)CC1)C(=O)Nc1cccc2ncccc12` (stereo partly drawn) [(S)-4-[5-(8-Aza-spiro[4.5]dec-8-yl)-4-(3,5-dichloro-benzoylamino)-5-oxo-pentanoylamino]-4-(quinolin-5-ylcarbamoyl)-butyric acid; hydrochloride], for which the concentration for half-maximal inhibition (IC50) in assay [1] was 76 nM; in assay [2], 136 nM.

`O=C(O)CC[C@H](NC(=O)CCC(NC(=O)c1cc(Cl)cc(Cl)c1)C(=O)N1CCC2(CCCC2)CC1)C(=O)Nc1cccc2cccnc12` (stereo partly drawn) [(S)-4-[5-(8-Aza-spiro[4.5]dec-8-yl)-4-(3,5-dichloro-benzoylamino)-5-oxo-pentanoylamino]-4-(quinolin-8-ylcarbamoyl)-butyric acid; hydrochloride]: the IC50 in assay [1] amounted to 54 nM; in assay [2] it was 108 nM.

For the molecule `CCCCCN(CCCCC)C(=O)[C@H](CCC(=O)O)NC(=O)CCC(NC(=O)c1cc(Cl)cc(Cl)c1)C(=O)N1CCC2(CCCC2)CC1` (stereo partly drawn) [(S)-4-[5-(8-Aza-spiro[4.5]dec-8-yl)-4-(3,5-dichloro-benzoylamino)-5-oxo-pentanoylamino]-4-dipentylcarbamoyl-butyric acid], the results for the IC50 in assay [1] and in assay [2] were 48 nM and 135 nM, respectively.

As for `CCCN(CCC)C(=O)[C@H](CCC(=O)O)NC(=O)CCC(NC(=O)c1cc(Cl)cc(Cl)c1)C(=O)N1CCC2(CCCC2)CC1` (stereo partly drawn) [(S)-4-[5-(8-Aza-spiro[4.5]dec-8-yl)-4-(3,5-dichloro-benzoylamino)-5-oxo-pentanoylamino]-4-dipropylcarbamoyl-butyric acid], the IC50 in assay [1] was 119 nM; in assay [2] it was 299 nM.

For the molecule `O=C(O)CC[C@H](NC(=O)CCC(NC(=O)c1cc(Cl)cc(Cl)c1)C(=O)N1CCC2(CCCC2)CC1)C(=O)N1CCc2ccccc2C1` (stereo partly drawn) [(S)-4-[5-(8-Aza-spiro[4.5]dec-8-yl)-4-(3,5-dichloro-benzoylamino)-5-oxo-pentanoylamino]-5-(3,4-dihydro-1H-isoquinolin-2-yl)-5-oxo-pentanoic acid], the IC50 in assay [1] was 49 nM; in assay [2] it was 140 nM.

Regarding `O=C(O)CC[C@H](NC(=O)CCC(NC(=O)c1cc(Cl)cc(Cl)c1)C(=O)N1CCC2(CCCC2)CC1)C(=O)N1CCC2CCCCC2C1` (stereo partly drawn) [(S)-4-[5-(8-Aza-spiro[4.5]dec-8-yl)-4-(3,5-dichloro-benzoylamino)-5-oxo-pentanoylamino]-5-(octahydro-isoquinolin-2-yl)-5-oxo-pentanoic acid], the IC50 came out at 28 nM in assay [1] and 185 nM in assay [2].

Regarding `O=C(O)CC[C@H](NC(=O)CCC(NC(=O)c1cc(Cl)cc(Cl)c1)C(=O)N1CCC2(CCCC2)CC1)C(=O)N1CCC2(CCCC2)CC1` (stereo partly drawn) [(S)-5-(8-Aza-spiro[4.5]dec-8-yl)-4-[5-(8-aza-spiro[4.5]dec-8-yl)-4-(3,5-dichloro-benzoylamino)-5-oxo-pentanoylamino]-5-oxo-pentanoic acid], the results for the IC50 in assay [1] and in assay [2] were 37 nM and 141 nM, respectively.

With `O=C(O)CNC(=O)CCC(NC(=O)c1cc(Cl)cc(Cl)c1)C(=O)N1CCC2(CCCC2)CC1` (stereo not given) [[5-(8-Aza-spiro[4.5]dec-8-yl)-4-(3,5-dichloro-benzoylamino)-5-oxo-pentanoylamino]-acetic acid], the IC50 worked out at 1040 nM in assay [1] and 1020 nM in assay [2].

As to `O=C(CCC(NC(=O)c1cc(Cl)cc(Cl)c1)C(=O)N1CCC2(CCCC2)CC1)NC(C(=O)O)c1ccccc1` (stereo not given) [[5-(8-Aza-spiro[4.5]dec-8-yl)-4-(3,5-dichloro-benzoylamino)-5-oxo-pentanoylamino]-phenyl-acetic acid], the IC50 is 80 nM in assay [1] and 390 nM in assay [2].

As for `CN(CC(=O)O)C(=O)CCC(NC(=O)c1cc(Cl)cc(Cl)c1)C(=O)N1CCC2(CCCC2)CC1` (stereo not given) [{[5-(8-Aza-spiro[4.5]dec-8-yl)-4-(3,5-dichloro-benzoylamino)-5-oxo-pentanoyl]-methyl-amino}-acetic acid], the IC50 came to 2810 nM in assay [1] and 1570 nM in assay [2].
